In ChEMBL document CHEMBL1126227, “The synthesis and reactivity of ,-acetylenic and allenic sulfoxides and sulfones of dehydroepiandrosterone and their reactions with 1-butanethiol and glucose-6-phosphate dehydrogenase” (Bioorg Med Chem Lett, 1992) one finds inhibition data, which are given here for 5 compounds.

For orientation: inhibition means the change of the read-out against control, counted positive when it falls. The low end stands for a response near the control, the high end for a response far below the control.

Sequence of Glucose-6-phosphate dehydrogenase (Bos taurus) (Q5EM56 as listed by the source): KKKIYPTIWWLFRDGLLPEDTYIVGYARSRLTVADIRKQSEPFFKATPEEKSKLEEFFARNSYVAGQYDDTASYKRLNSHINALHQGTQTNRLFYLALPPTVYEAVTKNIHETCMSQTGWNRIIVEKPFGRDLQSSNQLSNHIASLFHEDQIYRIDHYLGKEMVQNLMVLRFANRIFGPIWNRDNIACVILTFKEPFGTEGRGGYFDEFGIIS

The assay has as its target Glucose-6-phosphate dehydrogenase (Bos taurus) (UniProt Q5EM56). Description: Percent inhibition against bovine adrenal G6PDH (glucose-6-phosphate dehydrogenase) at a concentration of 10 e-5 M.
`C#CC[S+]([O-])[C@H]1CC[C@@]2(C)C(=CCC3C2CC[C@]2(C)C(=O)CCC32)C1` (stereo not given in full) registered an inhibition of less than 5%.
`C#CCS[C@H]1CC[C@@]2(C)C(=CCC3C2CC[C@]2(C)C(=O)CCC32)C1` (stereo not given in full): the inhibition turned out to be 47%.
The result for `C=C=CS(=O)(=O)[C@H]1CC[C@@]2(C)C(=CCC3C2CC[C@]2(C)C(=O)CCC32)C1` (stereo not given in full) reads 15%; that for `C=C=C[S+]([O-])[C@H]1CC[C@@]2(C)C(=CCC3C2CC[C@]2(C)C(=O)CCC32)C1` (stereo not given in full), less than 5%; that for `C#CCS(=O)(=O)[C@H]1CC[C@@]2(C)C(=CCC3C2CC[C@]2(C)C(=O)CCC32)C1` (stereo not given in full), 20%.
